Blank lines part the entries; values can stand above or below the molecule they belong to.
How the values were obtained:
CYP2B6 [1] = target: T1, CYP2B6 (Homo sapiens, UniProt P20813); conditions: both, 10 min, pH 7.4
CYP2B6 [2] = target: T1, CYP2B6; assay: biochemical
[3] = cited from earlier work
HT29SN-38-RES cells = assay: MDR reversal analysis with MTT assay, HT29SN-38-RES; assay type: cell-based, human; conditions: 72 hours, oxaliplatin is not a substrate for BCRP
Experimental: (§1) Control conditions consisted of full growth medium. All treatments were performed in triplicate.

MDCK-II-WT cells = assay: MDR reversal analysis with MTT assay, MDCK-II-WT; assay type: cell-based, canine; conditions: Canis lupus familiaris, 72 h drug exposure, read-out: IC50 Value for Each Cell Line: MDCK-II-WT
CYP2C8 = CYP2C8 (Homo sapiens, UniProt P10632); conditions: both, 10 min, pH 7.4
CYP2C19 = CYP2C19 (Homo sapiens, UniProt P33261); assay: CYP inhibition, CYP2C19; conditions: HLM, omeprazole substrate
BCRP [4] = target: T2, BCRP (Homo sapiens, UniProt Q9UNQ0); assay: Cellular dye efflux assay (Hoechst 33342) in HT29SN-38-RES cells; assay type: cell-based; parameters: endogenous in cells; host or cells: HT29 SN-38-RES (drug-selected HT29); conditions: fluorescence microscopy and imaging cytometry
T2 sequence (Q9UNQ0 1-655): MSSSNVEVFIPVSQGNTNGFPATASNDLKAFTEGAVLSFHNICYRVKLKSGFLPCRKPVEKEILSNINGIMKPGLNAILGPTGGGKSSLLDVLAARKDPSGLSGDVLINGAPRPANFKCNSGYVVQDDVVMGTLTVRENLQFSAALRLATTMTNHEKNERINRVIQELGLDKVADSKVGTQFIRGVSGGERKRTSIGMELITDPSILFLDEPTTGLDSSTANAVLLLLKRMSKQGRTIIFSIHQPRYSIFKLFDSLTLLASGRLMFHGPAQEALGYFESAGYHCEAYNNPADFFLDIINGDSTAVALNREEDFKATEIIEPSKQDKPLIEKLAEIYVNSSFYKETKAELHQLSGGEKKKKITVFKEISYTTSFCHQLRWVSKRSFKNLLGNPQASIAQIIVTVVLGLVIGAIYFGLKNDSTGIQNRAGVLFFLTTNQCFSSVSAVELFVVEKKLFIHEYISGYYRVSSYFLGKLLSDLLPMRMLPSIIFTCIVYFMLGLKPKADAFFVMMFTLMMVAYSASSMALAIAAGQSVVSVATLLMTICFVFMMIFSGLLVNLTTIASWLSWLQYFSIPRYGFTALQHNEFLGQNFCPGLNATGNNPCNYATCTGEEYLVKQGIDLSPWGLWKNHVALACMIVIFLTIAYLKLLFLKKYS

OAT3 = target: T3, OAT3 (Homo sapiens, UniProt Q8TCC7); assay: Fluorometric transporter inhibition, OAT3-CHO; assay type: in vitro ADME; conditions: CF substrate
T3 construct: expressed in transfected cells; host or cells: CHO
Experimental: (§2) Cells were seeded in a 96-well plate (20,000 cells/well) and used on days 2 or 3 post-seeding. […] Subsequently, substrate was added to the plate followed by 20 min incubation at 37 °C. The plate was then washed with cold assay buffer followed by fluorescence reading on a plate reader. The tested transporters, cell lines, substrates, and reference inhibitors are shown in the Supplementary Materials (Tables S1 and S2).
(§3) 110 Table S1. […]
OAT3 (h) inhibition (OAT3-CHO, CF substrate) […]
(§4) The IC50 values are shown for the analysed transporters with […]

CYP2D6 = CYP2D6 (Homo sapiens, UniProt P10635); conditions: both, pH 7.4
OATP1B3 = target: T4, OATP1B3 (Homo sapiens, UniProt Q9NPD5); assay: Fluorometric transporter inhibition, OATP1B3-CHO; assay type: in vitro ADME; conditions: FMTX substrate
T4 construct: expressed in transfected cells; host or cells: CHO
Experimental: as §2, §3
OATP1B3 OATP1B3-CHO Fluorescein methotrexate Rifampicin […]
OATP1B3 (h) inhibition (OATP1B3 -CHO, FMTX substrate) […]
as §4

OATP1B1 = target: T5, OATP1B1 (Homo sapiens, UniProt Q9Y6L6); assay: Fluorometric transporter inhibition, OATP1B1-CHO; assay type: in vitro ADME; conditions: FMTX substrate
T5 construct: expressed in transfected cells; host or cells: CHO
Experimental: as §2
110 Table S1. In vitro DMPK analysis of transporter inhibition
OATP1B1 OATP1B1-CHO Fluorescein methotrexate Rifampicin […]
OATP1B1 (h) inhibition (OATP1B1-CHO, FMTX substrate) […]
as §4

HT29PAR cells = assay: MDR reversal analysis with MTT assay, HT29PAR; assay type: cell-based; conditions: Homo sapiens, 72 h drug exposure, read-out: IC50 Value for Each Cell Line: HT29PAR
Experimental: as §1

BCRP [5] = target: T2, BCRP; assay: […] ATPase assay with recombinant BCRP membranes; assay type: biochemical; parameters: purchased Solvo Biotechnology (via Sigma-Aldrich/Merck) SB-BCRP-M; conditions: sulfasalazine alone; basal activity 50.68
Experimental: After incubation with test compounds, MgATP was added to each well and incubated at 37 °C for 10 min. The ATPase reaction was stopped by the addition of 1x Developer solution at room temperature (RT). Two minutes after, 100 µL Blocker solution was added and the plate was incubated for 30 min at 37 °C for 30 min. The optical densities were measured at 620 nm using a PowerWave X Microplate spectrophotometer (BioTek, Bad Friedrichshall, Germany).

[6] = Apparent permeability across Caco-2 cell monolayers; conditions: human, Caco-2, pH 7.4

T4 sequence (Q9NPD5 whole entry): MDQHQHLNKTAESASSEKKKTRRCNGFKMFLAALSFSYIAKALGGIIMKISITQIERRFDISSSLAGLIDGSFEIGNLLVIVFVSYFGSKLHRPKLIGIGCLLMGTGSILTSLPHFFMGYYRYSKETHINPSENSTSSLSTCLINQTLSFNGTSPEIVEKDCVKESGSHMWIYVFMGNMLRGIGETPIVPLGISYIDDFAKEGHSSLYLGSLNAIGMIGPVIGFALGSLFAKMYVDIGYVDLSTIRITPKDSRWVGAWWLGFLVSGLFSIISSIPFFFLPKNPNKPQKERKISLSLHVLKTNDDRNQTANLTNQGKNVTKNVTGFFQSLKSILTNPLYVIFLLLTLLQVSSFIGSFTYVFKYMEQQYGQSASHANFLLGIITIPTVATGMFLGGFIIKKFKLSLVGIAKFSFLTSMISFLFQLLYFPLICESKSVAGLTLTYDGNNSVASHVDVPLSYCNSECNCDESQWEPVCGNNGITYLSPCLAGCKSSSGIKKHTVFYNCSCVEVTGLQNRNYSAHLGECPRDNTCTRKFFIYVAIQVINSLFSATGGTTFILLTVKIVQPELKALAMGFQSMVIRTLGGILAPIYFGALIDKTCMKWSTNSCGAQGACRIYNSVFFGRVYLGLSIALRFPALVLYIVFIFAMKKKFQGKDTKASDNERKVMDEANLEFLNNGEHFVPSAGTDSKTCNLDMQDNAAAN
T5 sequence (Q9Y6L6 whole entry): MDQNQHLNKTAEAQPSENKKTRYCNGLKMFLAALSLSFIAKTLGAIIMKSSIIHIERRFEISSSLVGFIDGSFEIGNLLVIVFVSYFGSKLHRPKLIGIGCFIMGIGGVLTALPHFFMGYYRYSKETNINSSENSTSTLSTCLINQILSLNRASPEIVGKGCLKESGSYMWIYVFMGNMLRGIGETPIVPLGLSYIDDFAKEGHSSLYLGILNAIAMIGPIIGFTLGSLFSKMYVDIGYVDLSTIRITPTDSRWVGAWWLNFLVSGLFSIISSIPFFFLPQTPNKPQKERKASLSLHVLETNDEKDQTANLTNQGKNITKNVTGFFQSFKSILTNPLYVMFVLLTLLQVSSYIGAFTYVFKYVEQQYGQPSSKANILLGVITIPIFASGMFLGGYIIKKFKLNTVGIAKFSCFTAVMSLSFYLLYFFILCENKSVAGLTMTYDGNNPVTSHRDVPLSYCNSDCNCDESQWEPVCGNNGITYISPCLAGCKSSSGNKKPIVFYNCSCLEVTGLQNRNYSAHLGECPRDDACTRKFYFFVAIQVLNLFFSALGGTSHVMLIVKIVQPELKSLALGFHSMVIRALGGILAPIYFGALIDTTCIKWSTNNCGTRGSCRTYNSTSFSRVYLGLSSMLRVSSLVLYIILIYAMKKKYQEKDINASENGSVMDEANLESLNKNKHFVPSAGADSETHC
T1 sequence (P20813 whole entry): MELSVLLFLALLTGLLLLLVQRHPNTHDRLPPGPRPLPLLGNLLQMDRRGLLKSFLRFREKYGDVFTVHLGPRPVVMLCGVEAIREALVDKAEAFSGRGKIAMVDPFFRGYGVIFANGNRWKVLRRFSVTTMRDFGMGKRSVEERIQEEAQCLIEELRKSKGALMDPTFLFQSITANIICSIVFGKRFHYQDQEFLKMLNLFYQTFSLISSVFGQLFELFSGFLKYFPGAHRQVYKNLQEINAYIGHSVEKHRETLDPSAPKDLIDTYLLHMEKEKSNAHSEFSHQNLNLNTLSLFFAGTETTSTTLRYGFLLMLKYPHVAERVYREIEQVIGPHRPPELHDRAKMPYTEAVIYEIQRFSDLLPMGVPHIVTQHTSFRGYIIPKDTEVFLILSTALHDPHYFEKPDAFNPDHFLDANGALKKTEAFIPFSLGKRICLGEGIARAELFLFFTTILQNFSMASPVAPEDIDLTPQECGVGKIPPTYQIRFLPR
Sequence of CYP2D6 (P10635 whole entry): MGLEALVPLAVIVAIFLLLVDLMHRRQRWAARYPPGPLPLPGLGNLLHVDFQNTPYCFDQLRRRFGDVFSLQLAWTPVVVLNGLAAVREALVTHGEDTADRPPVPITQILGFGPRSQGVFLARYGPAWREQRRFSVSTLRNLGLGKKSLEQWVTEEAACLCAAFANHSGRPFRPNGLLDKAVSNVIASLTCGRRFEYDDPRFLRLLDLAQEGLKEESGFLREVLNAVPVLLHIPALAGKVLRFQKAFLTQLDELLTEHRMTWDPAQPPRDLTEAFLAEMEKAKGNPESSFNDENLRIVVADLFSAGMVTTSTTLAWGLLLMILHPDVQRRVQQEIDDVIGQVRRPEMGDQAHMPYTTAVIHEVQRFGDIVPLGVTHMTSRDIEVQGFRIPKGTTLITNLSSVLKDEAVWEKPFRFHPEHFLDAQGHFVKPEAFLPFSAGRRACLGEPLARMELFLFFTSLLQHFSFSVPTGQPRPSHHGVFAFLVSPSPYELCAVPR
Sequence of CYP2C8 (P10632 whole entry): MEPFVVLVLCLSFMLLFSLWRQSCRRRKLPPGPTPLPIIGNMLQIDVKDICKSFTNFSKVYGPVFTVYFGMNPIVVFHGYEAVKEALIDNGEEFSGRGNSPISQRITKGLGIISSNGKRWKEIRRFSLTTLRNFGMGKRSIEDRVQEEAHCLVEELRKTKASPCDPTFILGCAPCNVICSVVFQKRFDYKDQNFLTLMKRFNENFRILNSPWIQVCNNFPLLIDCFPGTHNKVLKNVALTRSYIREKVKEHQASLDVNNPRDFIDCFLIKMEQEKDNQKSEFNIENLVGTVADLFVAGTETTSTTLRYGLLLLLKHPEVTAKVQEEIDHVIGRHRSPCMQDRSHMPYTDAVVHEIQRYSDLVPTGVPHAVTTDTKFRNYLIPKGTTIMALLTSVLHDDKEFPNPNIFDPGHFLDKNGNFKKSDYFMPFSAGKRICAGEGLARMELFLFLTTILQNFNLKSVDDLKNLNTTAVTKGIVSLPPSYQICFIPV
T3 sequence (Q8TCC7 whole entry): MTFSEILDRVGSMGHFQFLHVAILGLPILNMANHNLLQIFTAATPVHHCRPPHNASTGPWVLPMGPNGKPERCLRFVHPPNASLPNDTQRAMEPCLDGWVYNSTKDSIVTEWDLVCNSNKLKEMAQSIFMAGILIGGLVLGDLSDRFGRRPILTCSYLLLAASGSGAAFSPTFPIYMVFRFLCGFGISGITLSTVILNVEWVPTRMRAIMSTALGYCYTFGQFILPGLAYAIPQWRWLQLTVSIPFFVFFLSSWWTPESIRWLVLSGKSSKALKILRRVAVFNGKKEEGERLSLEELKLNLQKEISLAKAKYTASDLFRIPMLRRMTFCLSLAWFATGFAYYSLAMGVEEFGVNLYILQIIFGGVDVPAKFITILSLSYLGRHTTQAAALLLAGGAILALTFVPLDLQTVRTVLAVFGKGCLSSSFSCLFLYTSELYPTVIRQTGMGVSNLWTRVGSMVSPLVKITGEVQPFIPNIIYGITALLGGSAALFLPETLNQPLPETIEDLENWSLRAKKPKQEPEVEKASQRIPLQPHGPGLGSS
Sequence of CYP2C19 (P33261 whole entry): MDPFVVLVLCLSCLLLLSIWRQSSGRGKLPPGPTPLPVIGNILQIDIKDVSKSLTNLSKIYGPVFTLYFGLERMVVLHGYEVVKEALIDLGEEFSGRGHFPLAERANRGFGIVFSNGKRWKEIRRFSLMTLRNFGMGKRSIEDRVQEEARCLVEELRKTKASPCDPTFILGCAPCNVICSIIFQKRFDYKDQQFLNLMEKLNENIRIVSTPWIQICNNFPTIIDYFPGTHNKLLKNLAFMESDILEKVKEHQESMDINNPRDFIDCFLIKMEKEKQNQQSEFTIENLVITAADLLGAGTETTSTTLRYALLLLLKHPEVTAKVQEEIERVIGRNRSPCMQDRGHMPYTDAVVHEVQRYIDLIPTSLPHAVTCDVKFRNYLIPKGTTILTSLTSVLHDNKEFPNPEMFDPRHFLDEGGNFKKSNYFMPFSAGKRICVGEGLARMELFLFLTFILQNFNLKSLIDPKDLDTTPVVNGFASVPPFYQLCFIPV

nH (CYP2B6 [1]): 1.3
IC50 (CYP2B6 [2]): 740 nM
Structure (SMILES): COC(=O)[C@H](c1ccccc1Cl)N1CCc2sccc2C1 [Clopidogrel]

Structure (SMILES): COc1ccc2c3c([nH]c2c1)[C@H](CC(C)C)N1C(=O)[C@H](CCC(=O)OC(C)(C)C)NC(=O)[C@@H]1C3 [Ko143, reference compound]
stability in plasma [3]: not stable in plasma
combinatorial effect with oxaliplatin on cell viability (HT29SN-38-RES cells): no added effects

Structure (SMILES): O=C1c2c(O)ccc(O)c2C(=O)c2c(NCCNCCO)ccc(NCCNCCO)c21 [Mitoxantrone]
IC50 (MDCK-II-WT cells): 157 ± 23 nM

Structure (SMILES): CC(C)(O)c1ccccc1CC[C@@H](SCC1(CC(=O)O)CC1)c1cccc(/C=C/c2ccc3ccc(Cl)cc3n2)c1 [Montelukast]
nH (CYP2C8): 0.8

nH (CYP2C19): 1.0
Structure (SMILES): CCN(CC)CC#CCOC(=O)C(O)(c1ccccc1)C1CCCCC1 (stereo not drawn) [Oxybutynin]

Hoechst accumulation in resistant cells (BCRP [4]): did not have any effects
Structure (SMILES): C/C=C/C[C@@H](C)C(=O)[C@H]1C(=O)N[C@@H](C(C)C)C(=O)N(C)CC(=O)N(C)[C@@H](CC(C)C)C(=O)N[C@@H](C(C)C)C(=O)N(C)[C@@H](CC(C)C)C(=O)N[C@@H](C)C(=O)N[C@H](C)C(=O)N(C)[C@@H](CC(C)C)C(=O)N(C)[C@@H](CC(C)C)C(=O)N(C)[C@@H](C(C)C)C(=O)N1C [PSC833, reference compound]

nH (OAT3): 0.6
Structure (SMILES): CCCN(CCC)S(=O)(=O)c1ccc(C(=O)O)cc1 [Probenecid]

Structure (SMILES): C=C[C@H]1C[N@@]2CC[C@H]1C[C@@H]2[C@@H](O)c1ccnc2ccc(OC)cc12 [Quinidine]
nH (CYP2D6): 1.1

Structure (SMILES): CO[C@H]1/C=C/O[C@@]2(C)Oc3c(C)c(O)c4c(O)c(c(/C=N/N5CCN(C)CC5)c(O)c4c3C2=O)NC(=O)/C(C)=C\C=C\[C@H](C)[C@H](O)[C@@H](C)[C@@H](O)[C@@H](C)[C@H](OC(C)=O)[C@@H]1C [Rifampicin]
nH (OATP1B3): 0.4
IC50 (OATP1B3; NC: not calculable): 5400 nM
nH (OATP1B1): 0.6
IC50 (OATP1B1; NC: not calculable): 2200 nM

IC50 (HT29PAR cells): 16 ± 10 nM
Structure (SMILES): CCc1c2c(nc3ccc(O)cc13)-c1cc3c(c(=O)n1C2)COC(=O)[C@]3(O)CC [SN-38, 7-Ethyl-10-hydroxycamptothecin]

maximal ATPase activity (BCRP [5]): 104.8 nmol Pi/mg protein/min
Structure (SMILES): O=C(O)c1cc(/N=N/c2ccc(S(=O)(=O)Nc3ccccn3)cc2)ccc1O [Sulfasalazine, reference compound]

IC50 (HT29PAR cells): 8 ± 3 nM
Structure (SMILES): CC[C@@]1(O)C(=O)OCc2c1cc1n(c2=O)Cc2cc3c(CN(C)C)c(O)ccc3nc2-1 [Topotecan]

apparent permeability in the efflux direction (basolateral to apical) (Caco-2 cell monolayers): 2.7 ± 0.2 × 10^−5 cm/second
apparent permeability in the opposite direction (apical to basolateral) (Caco-2 cell monolayers): 2.2 ± 0.01 × 10^−6 cm/second
efflux ratio (PB-A/PA-B) (Caco-2 cell monolayers): 12.2
Structure (SMILES): C[C@]12CC[C@@H]3c4ccc(OS(=O)(=O)O)cc4CC[C@H]3[C@@H]1CCC2=O [[^3H]-estrone-3-sulfate]

Papp at 120 min, 0.8 µCi/mL [6]: 0.21 ×10⁻⁶ cm/s
Structure (SMILES): OC[C@@H](O)[C@@H](O)[C@H](O)[C@H](O)CO [mannitol]

Reference: article PMC7140522, “The Pyrazolo[3,4-d]pyrimidine Derivative, SCO-201, Reverses Multidrug Resistance Mediated by ABCG2/BCRP” (Cells, 2020)
